Measurements published in PMC12427625, “Heterochannels Kv(1.1-1.2)2 and Their Interactions with Pore Blockers” (Cells, 2025).
Where two headings read alike, the source gives them in different places. Bridge positions count the residues as written; N and C are the ends. Peptide text beside a SMILES is read from it.

Legend:
[1] = target: T1, human heterochannels Kv(1.1-1.2)2 (Homo sapiens, UniProt P16389+Q09470, S369T/S371T); experiment: Competitive binding of peptide and HgTx-G to Kv(1.1-1.2)2 heterochannels; details: for Kd: Kv(1.1-1.2)2 formed by K-Kv1.1-1.2, competitive displacement of 0.5 nM HgTx-G, complete medium, 1 h, Cheng-Prusoff, mean ± SEM of three independent experiments, read-out: apparent dissociation constant (Kap); for affinity for Kv(1.1-1.2)2 in words: Kv(1.1-1.2)2, competitive binding with HgTx-G; for fold lower activity compared to Ce1: Kv(1.1-1.2)2, vs Ce1; for displacement of HgTx-G: 0.5 nM HgTx-G, 10 nM HgTx1 (Figure 1)
T1 construct: expressed in transfected cells; host or cells: mouse neuroblastoma Neuro-2a cells transfected with pmKate2-KCNA1-KCNA2
T1 sequence (Q09470 whole entry S369T): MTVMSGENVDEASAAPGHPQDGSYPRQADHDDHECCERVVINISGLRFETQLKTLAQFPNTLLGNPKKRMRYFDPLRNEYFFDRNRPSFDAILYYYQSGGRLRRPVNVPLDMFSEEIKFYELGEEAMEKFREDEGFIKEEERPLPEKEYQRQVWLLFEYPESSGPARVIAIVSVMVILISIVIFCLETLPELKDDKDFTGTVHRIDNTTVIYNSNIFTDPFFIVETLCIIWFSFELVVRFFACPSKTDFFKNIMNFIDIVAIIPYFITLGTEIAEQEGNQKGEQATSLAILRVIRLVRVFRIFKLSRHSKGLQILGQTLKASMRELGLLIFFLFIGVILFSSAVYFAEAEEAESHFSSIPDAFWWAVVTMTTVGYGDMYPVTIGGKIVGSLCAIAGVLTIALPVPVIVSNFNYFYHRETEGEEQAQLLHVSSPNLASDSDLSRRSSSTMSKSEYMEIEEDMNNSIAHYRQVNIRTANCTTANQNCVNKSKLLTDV
T1 sequence (P16389 2-499 S371T): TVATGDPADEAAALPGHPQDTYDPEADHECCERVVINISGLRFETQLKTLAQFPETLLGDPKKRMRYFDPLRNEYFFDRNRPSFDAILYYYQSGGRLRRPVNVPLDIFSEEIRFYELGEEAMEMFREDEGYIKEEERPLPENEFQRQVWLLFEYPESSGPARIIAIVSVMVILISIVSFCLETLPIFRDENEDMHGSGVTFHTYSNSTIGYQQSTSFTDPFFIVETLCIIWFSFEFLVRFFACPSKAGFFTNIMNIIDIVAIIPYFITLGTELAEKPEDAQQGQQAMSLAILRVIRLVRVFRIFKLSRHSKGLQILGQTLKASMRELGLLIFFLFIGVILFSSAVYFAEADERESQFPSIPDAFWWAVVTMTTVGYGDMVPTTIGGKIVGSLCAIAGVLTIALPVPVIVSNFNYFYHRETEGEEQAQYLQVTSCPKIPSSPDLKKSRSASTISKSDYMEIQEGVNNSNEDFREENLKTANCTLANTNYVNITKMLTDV
Description: To construct the gene encoding a fluorescent concatenated dimer mKate2-Kv1.1-Kv1.2 (K-Kv1.1-1.2), a cloning strategy was used, in which the C-terminus of the human Kv1.1 α-subunit was fused end-to-end to the N-terminus of the human Kv1.2 α-subunit via a short KL linker that corresponds to the HindIII restriction site. Here, we followed the design of the α-subunit concatemers proposed earlier. The previously obtained plasmids pmKate2-KCNA1 and pmKate2-KCNA2, which coded for mKate2-Kv1.1 (K-Kv1.1) and mKate2-Kv1.2 (K-Kv1.2) fusion proteins, were used for cloning. In these proteins, both human α-subunits Kv1.1 and Kv1.2 are N-terminally tagged with the red fluorescent protein mKate2 and harbor single mutations (S369T in Kv1.1, and S371T in Kv1.2) that improve the surface presentation of the homotetrameric channels. At first, pmKate2-KCNA1stopless was generated by amplification of the KCNA1 gene lacking TAA stop codon in a polymerase chain reaction (PCR) using a pair of oligonucleotide primers Kcna1-f1 (5′-[…]-3′) and Kcna1-Stop-r1 (5′-[…]-3′; BglII and HindIII sites are underlined). The obtained DNA fragment was hydrolyzed by BglII/HindIII restriction endonucleases and cloned into pmKate2-KCNA1 plasmid to substitute KCNA1 for KCNA1stopless. The obtained plasmid pmKate2-KCNA1stopless was further used as a vector to produce the KCNA1-KCNA2 dimer. For this, the KCNA2 gene was amplified in PCR using primers Kcna2-Hind-f1 (5′- […]-3′) and Kcna2-Sal-r1 ([…]-3′; HindIII, SalGI, and PstI sites are underlined; TAA stop codon is marked in bold) and cloned into HindIII/SalI sites of pmKate2-KCNA1stopless. The resulting pmKate2-KCNA1-KCNA2 plasmid encoded K-Kv1.1-1.2.
To analyze the binding of HgTx-G to heterochannels, HgTx-G (0.032–2 nM) was added to cells in the complete medium for 1 h. In the experiments with competitive binding, HgTx-G (0.5 nM) was added to cells, together with the studied peptide ([…]; 1.25–100 nM ChTx; 0.5–20 nM AgTx2, 2–10 nM MeKTx11-1, 0.063–1 nM Ce1, 0.063–1 nM Ce4, or 1 µM ScyTx), and incubated in the complete medium for 1 h.
Confocal microscopy measurements were carried out with the SP2 laser scanning confocal microscope (Leica Microsystems GmbH, Wetzlar, Germany), using the 63× water-immersion objective (HCX PL APO, NA = 1.2). Axial and lateral resolutions were 0.6 and 0.2 µm.
Fluorescence of proteins labeled with mKate2 was excited at 561 nm and detected in the 680–800 nm region. Fluorescence of HgTx-G was excited at 488 nm and recorded in the 495–540 nm region. The fluorescent probes of various cellular organelles were excited at 488 nm and detected in the 495–540 nm region.
Quantitative analysis of HgTx-G interaction with heterochannels was performed following the procedure developed previously. Briefly, confocal images of cells were used to calculate the ratio of the fluorescence intensity of HgTx-G bound to heterochannels to the fluorescence intensity of membrane-embedded heterochannels for each measured cell. This ratio was averaged over a sample of measured cells (20–30 cells) to obtain the Rav value and its standard deviation.
To characterize the affinity of unlabeled peptide for heterochannels, the competitive binding of this peptide and HgTx-G to heterochannels was measured at the constant concentration of HgTx-G (L) and increasing concentration (C) of the peptide. Rav data were calculated, plotted as a function of C, and fitted with the following equation:Rav(C) = Rav0/(1 + C/DC50)(2) where DC50 is the peptide concentration displacing 50% of HgTx-G from the complex with heterochannels, and Rav0 is Rav at C = 0.
Further, the Cheng–Prusoff equation was used to calculate the apparent dissociation constant (Kap) of the complex between the studied peptide and heterochannels:Kap = DC50/(1 + L/Kd)(3)
Three independent experiments were performed, and data on Kap were averaged and presented as mean ± SEM.

Kv1.2 [2] = experiment: Competitive binding, homotetrameric Kv1.2 channel (earlier data); details: Kv1.2 vs Kv1.1 (Table 2)
Kv1.1 [3] = details: cited from earlier work; for Kd: Kv1.1, read-out: Kap
Description: (§1) These properties were also similar to those reported by other investigators for the corresponding homotetrameric channels, Kv1.1 and Kv1.2. It was also shown that the Kd of the complexes between HgTx-G, a high-affinity fluorescent ligand for the Kv1.1 and Kv1.2 channels, and ...

Kv1.2 [4] = details: cited from earlier work; for Kd: Kv1.2, ref [35], read-out: Kap
Description: as §1

Kv1.3 [5] = experiment: Ce4 activity on Kv1.3 (earlier data); details: Table 2 and data published previously [35]
Kv1.1 [6] = experiment: Competitive binding, homotetrameric Kv1.1 channel (earlier data); details: Table 2 and data published previously [35]
Kv1.3 [7] = test system: Kv1.3; design: method as in PMID 9446567; details: HEK-293 cells; ref [14]; cited from earlier work
Kv1.1 [8] = test system: Kv1.1; design: method as in PMID 9446567; details: HEK-293 cells; ref [14]; cited from earlier work
Kv1.2 [9] = test system: Kv1.2; design: method as in PMID 9446567; details: HEK-293 cells; ref [14]; cited from earlier work
Kv1.6 = test system: Kv1.6; design: method as in PMID 9446567; details: HEK-293 cells; ref [14]; cited from earlier work

## CC[C@H](C)[C@@H]1NC(=O)[C@@H]2CSSC[C@@H]3NC(=O)[C@H](CCCCN)NC(=O)[C@H](CCCNC(=N)N)NC(=O)[C@H](CC(N)=O)NC(=O)[C@H](CCSC)NC(=O)[C@H](CSSC[C@H](NC(=O)[C@H](CO)NC(=O)[C@@H](NC(=O)[C@H](CC(N)=O)NC(=O)[C@@H](NC(=O)[C@@H]4CCCN4C(=O)[C@@H](NC(=O)CN)C(C)C)[C@@H](C)CC)C(C)C)C(=O)N[C@@H]([C@@H](C)O)C(=O)NCC(=O)N[C@@H](CO)C(=O)N4CCC[C@H]4C(=O)N[C@@H](CCC(N)=O)C(=O)N2)NC(=O)[C@H](CCCCN)NC(=O)CNC(=O)[C@H](Cc2ccccc2)NC(=O)[C@H](CCCNC(=N)N)NC(=O)[C@H](CCSC)NC(=O)CNC(=O)[C@H](C)NC(=O)[C@H](CC(=O)O)NC(=O)[C@H](CCCCN)NC(=O)[C@H](CSSC[C@@H](C(=O)N[C@H](C(=O)N2CCC[C@H]2C(=O)N[C@@H](CCCCN)C(=O)O)[C@@H](C)O)NC(=O)[C@H](Cc2c[nH]cn2)NC3=O)NC(=O)[C@@H]2CCCN2C(=O)[C@H](CCCCN)NC1=O [AgTx2, agitoxin 2]
[1]
  Kd: 0.25 ± 0.05 nM

## CC[C@H](C)[C@H](NC(=O)[C@@H](NC(=O)[C@@H](N)[C@@H](C)O)C(C)C)C(=O)N[C@@H](CC(N)=O)C(=O)N[C@H](C(=O)N[C@@H](CCCCN)C(=O)N[C@H]1CSSC[C@@H]2NC(=O)[C@H](CCCCN)NC(=O)[C@H](C)NC(=O)CNC(=O)[C@H](C)NC(=O)[C@H](Cc3c[nH]cn3)NC(=O)[C@@H]3CCCN3C(=O)CNC(=O)[C@H](Cc3ccc(O)cc3)NC(=O)[C@H](CC(C)C)NC(=O)[C@H](CC(=O)O)NC(=O)[C@H](CCCCN)NC(=O)[C@@H]3CSSC[C@@H](C(=O)N[C@@H](Cc4ccc(O)cc4)C(=O)N[C@@H](CC(N)=O)C(=O)N[C@@H](CC(N)=O)C(=O)O)NC(=O)[C@H](CCCCN)NC(=O)[C@H](CSSC[C@H](NC(=O)[C@H](CCC(N)=O)NC(=O)[C@H](CCCCN)NC(=O)[C@@H]4CCCN4C(=O)[C@H](CO)NC(=O)[C@H]([C@@H](C)O)NC1=O)C(=O)N[C@@H](CC(C)C)C(=O)N[C@@H](CCCCN)C(=O)N1CCC[C@H]1C(=O)N3)NC(=O)[C@H](CCCCN)NC(=O)CNC(=O)[C@H](CC(N)=O)NC(=O)[C@H](CCSC)NC2=O)C(C)C [Ce1] (H-TVINVKCTSPKQCLKPCKDLYGPHAGAKCMNGKCKCYNN-OH; disulfide 7-29, 13-34, 17-36; N-terminus and C-terminus assumed)
Kv1.2 [2]
  activity against Kv1.2 compared to Kv1.1: much higher activity against the Kv1.2 channel than against the Kv1.1 channel
[1]
  affinity for Kv(1.1-1.2)2 in words: highest picomolar affinity
Kv1.1 [3]; ref [34]
  Kd: 11 ± 5 nM
Kv1.2 [4]
  Kd: 0.01 ± 0.002 nM

## CC[C@H](C)[C@H](NC(=O)[C@H](CCCCN)NC(=O)[C@H](Cc1ccc(O)cc1)NC(=O)[C@@H]1CSSC[C@@H]2NC(=O)[C@@H]3CCCN3C(=O)[C@H](CC(C)C)NC(=O)[C@H](CC(C)C)NC(=O)[C@@H]3CSSC[C@H](NC(=O)[C@H](CCCCN)NC(=O)CNC(=O)[C@H](CC(N)=O)NC(=O)[C@H](CCSC)NC(=O)[C@H](CSSC[C@H](NC(=O)[C@H](CCCCN)NC(=O)[C@@H](NC(=O)[C@H](CC(N)=O)NC(=O)[C@@H](NC(=O)[C@@H](NC(=O)[C@@H](N)[C@@H](C)O)[C@@H](C)CC)[C@@H](C)CC)C(C)C)C(=O)N[C@@H]([C@@H](C)O)C(=O)N[C@@H](CO)C(=O)N4CCC[C@H]4C(=O)N[C@@H](CCCCN)C(=O)N[C@@H](CCC(N)=O)C(=O)N3)NC(=O)[C@H](CCCCN)NC(=O)[C@H](C)NC(=O)CNC(=O)[C@H](C)NC(=O)[C@H](Cc3c[nH]cn3)NC(=O)[C@H]([C@@H](C)CC)NC(=O)CNC(=O)[C@H](Cc3ccc(O)cc3)NC(=O)[C@H]([C@@H](C)CC)NC(=O)[C@H](CCC(=O)O)NC(=O)[C@H](CCCCN)NC2=O)C(=O)N[C@@H](CCCCN)C(=O)N1)C(=O)O [Ce4] (H-TIINVKCTSPKQCLLPCKEIYGIHAGAKCMNGKCKCYKI-OH; disulfide 7-29, 13-34, 17-36; N-terminus and C-terminus assumed)
Kv1.3 [5]
  selectivity: activity against Kv1.2 and Kv(1.1-1.2)2 higher than against Kv1.3: > 1000 times
Kv1.2 [2]
  activity against Kv1.2 compared to Kv1.1: much higher activity against the Kv1.2 channel than against the Kv1.1 channel
Kv1.1 [6]
  selectivity: activity against Kv1.2 and Kv(1.1-1.2)2 higher than against Kv1.1: more than 10,000 times
[1]
  fold lower activity compared to Ce1: approximately threefold
Kv1.1 [3]; ref [35]
  Kd: > 300 nM
Kv1.2 [4]
  Kd: 0.03 ± 0.01 nM

## CC[C@H](C)[C@@H]1NC(=O)CNC(=O)[C@H](Cc2ccccc2)NC(=O)[C@H](CCC(N)=O)NC(=O)[C@H](C)NC(=O)[C@H](CCCCN)NC(=O)[C@@H]2CSSC[C@@H](C(=O)N[C@@H](Cc3ccc(O)cc3)C(=O)N3CCC[C@H]3C(=O)N[C@@H](Cc3c[nH]cn3)C(=O)O)NC(=O)[C@H](CCCCN)NC(=O)[C@@H]3CSSC[C@H](NC(=O)[C@H](CCC(N)=O)NC(=O)[C@H](CCCCN)NC(=O)[C@@H]4CCCN4C(=O)[C@H](CO)NC(=O)[C@H]([C@@H](C)O)NC(=O)[C@@H](NC(=O)[C@H](CCCCN)NC(=O)[C@@H](NC(=O)[C@H](CC(=O)O)NC(=O)[C@@H](NC(=O)[C@@H](NC(=O)[C@@H](N)[C@@H](C)O)C(C)C)[C@@H](C)CC)C(C)C)CSSC[C@H](NC(=O)[C@H](CCCCN)NC(=O)[C@H](C)NC(=O)CNC(=O)[C@H](C)NC(=O)[C@H](CCCNC(=N)N)NC1=O)C(=O)N[C@@H](CCSC)C(=O)N[C@@H](CC(N)=O)C(=O)NCC(=O)N[C@@H](CCCCN)C(=O)N3)C(=O)N[C@@H](CC(C)C)C(=O)N1CCC[C@H]1C(=O)N1CCC[C@H]1C(=O)N2 [HgTx1, hongotoxin 1] (H-TVIDVKCTSPKQCLPPCKAQFGIRAGAKCMNGKCKCYPH-OH; disulfide 7-29, 13-34, 17-36; N-terminus and C-terminus assumed)
Kv1.3 [7]
  affinity, 86Rb+ flux inhibition: subnanomolar
Kv1.1 [8]
  affinity, 86Rb+ flux inhibition: subnanomolar
[1]
  affinity for Kv(1.1-1.2)2 in words: very high affinity
  fold lower activity compared to Ce1: approximately threefold
  Kd: 0.04 ± 0.01 nM
[1]; channels formed by K-Kv1.1-1.2
  displacement of HgTx-G: displaced HgTx-G
[1]; channels formed by K-Kv1.2-1.1
  displacement of HgTx-G: displaced HgTx-G
Kv1.2 [9]
  affinity, 86Rb+ flux inhibition: subnanomolar
Kv1.6
  affinity, 86Rb+ flux inhibition: nanomolar
Kv1.1 [3]; K-Kv1.1-1.1 and K-Kv1.1, ref [28],[29]
  displacement of HgTx-G from the complexes: displaced
Kv1.1 [3]; ref [34]
  Kd: 0.03 ± 0.02 nM
Kv1.2 [4]; K-Kv1.2-1.2 and K-Kv1.2, ref [28],[29]
  displacement of HgTx-G from the complexes: displaced
Kv1.2 [4]
  Kd: 0.02 ± 0.01 nM
